Key:
Factor 34 = assay: ELISA antigenic reactivity with antigenic factor 34; assay type: binding, rabbit; settings: FIG. 8
Procedure: Monospecific polyclonal antibodies from Iatron were prepared by immunization of rabbits with whole yeasts then adsorbed by yeasts of heterologous species. Used as a battery, they enable identification by agglutination of the principal species of Candida implicated in human pathology. Each of these “factors” reacts with specific epitopes which were identified by any entire series of immunochemical studies performed in Japan. The results of these studies were summarized in the publication by S. Suzuki (Suzuki, S. et al., 1997, Curr. Top. Med. Mycol. 8: 57–70).
According to the immunochemical studies performed on the Iatron serums, this structure should react with Factor 34 (Suzuki, S. et al., 1997, Curr. Top. Med. 8: 57–70).

[1] = system: antibodies of pool of serum from patients with Crohn's disease; assay: ELISA reactivity of pool of patient serums (ASCA test) with plates sensitized with synthetic antigen; assay type: binding; settings: FIG. 9, pool of patient serums used to standardize the ASCA test
Source text: It has been shown that one of the major epitopes against which was directed the ASCA response of patients with Crohn's diseases was a mannotetraose of formula Man α-1,3 Man α-1,2 Man α-1,2 Man (Sendid, B. et al., 1996, Clin. Diagn. Lab. Immunol. 3: 219–26; Young, M. et al., 1998, Glycoconj. J. 15: 815–22).

[2] = system: C. albicans strain 10261 (4277); assay: Gastrointestinal colonization of neonatal mice by C. albicans, prophylactic synthetic tetramannosides; assay type: in vivo, mouse; settings: for effect on gastrointestinal colonization by C. albicans (in words) / reduction in intestinal colonization (in words): mice; for effect on gastrointestinal colonization by C. albicans (in words): administration prior to inoculation, versus control; for reduction in intestinal colonization (in words): dose of 150 μg by gavage prior to inoculation; for degree of gastrointestinal colonization, median of CFUs: young mice, CFU/dropping 7 days after the inoculation
Procedure: The mothers and their litters (10 to 15 baby mice/litter) were received on the 4th day of life (line CD-1® (Crl: CD-1® (ICR) BR, Charles River, Saint Aubin les Elbeuf, France). The animals were inoculated on the 6th day of life. There was always a separation from the mother for 3 hours prior to gavage and a one hour interval after inoculation.
Two strains of C. albicans were used, strain 4276 which expresses a small amount of β-1,2 oligomannosides at its surface and strain 4277 which expresses a large amount. Prior to each use, the strains were re-inoculated on Sabouraud-chloramphenicol (SC) agar from a culture stored at −80° C. in PBS-40% glycerol. After incubation for 24 hours at 35° C., the yeasts were washed 3 time in sterile physiological water (NaCl 0.9%, water φ) and the suspension was adjusted to 2×10^9/ml. The viability of the inoculum was verified for each experiment by sowing suitable dilutions of the yeast suspensions on SC agar in Petri dishes.
[…] The sugars were diluted in sterile water to obtain the desired concentration (see results) in a volume of 50 μl. Two independent experiments were carried out. In the first, 4 litters infected with strain 4277 were compared after administration, respectively, of water (litter 1), of 50 μg pf αMan (litter 2), 150 μg of βMan (litter 3) or 150 μg of 0αMan (litter 4). In the second experiment, four litters were infected either with strain 4276 (litters 1 and 2) or with strain 4277 (litters 3 and 4) after treatment with water (litters 1 and 3) or 50 μg of bMan (litters 2 and 4).
• Mortality: the cages were monitored once daily and the number of mice was recorded. • Gastrointestinal colonization: sequentially, beginning on day 7 after the inoculation, one dropping was collected from each mouse, ground in 100 μl of sterile water with a small piston adapted to function in 1.5-ml Eppendorf tubes and the total volume was inoculated on SC agar in a Petri dish. The number of colony forming units (CFU) was counted after 24 hours of incubation at 30° C. When the CFU density prevented counting, a score was attributed on the basis of the appearance of the culture so as to allow statistical comparisons: 2 or 1000 CFU, 3 or 10,000 CFU, 4 or 100,000 CFU. 7) Statistical Analysis
The gastrointestinal colonizations according to the infecting strain and according to the treatment preceding the inoculation were compared using a nonparametric test (Mann-Whitney or Kruskall-Wallis test, depending on the number of groups) using the program Statview 4.5 for Macintosh. The percentages of positive cultures or deaths on day 1 were compared with the Fisher exact test.

C. albicans (SA-40) = assay: Experimental model of vaginal candidiasis in the rat, inhibition of colonization; assay type: in vivo; settings: for inhibition of colonization/infection (in words): administration 1 h, α control even at the maximum dose; for inhibition of colonization/infection (in words) / level of colonization (colony-forming units in vaginal secretions): 24 h and 48 h after inoculation; for level of colonization (colony-forming units in vaginal secretions): rat
Procedure: Ovarectomized female rats were maintained in pseudo-estrus by subcutaneous injection of 0.5 mg of estradiol benzoate every 2 days during the duration of the experiments. The animals were inoculated with 0.1 ml of a 10^7 yeast solution. The kinetics of the infection were monitored by determining the number of yeasts present in the vaginal secretions. 1 μl of secretion was collected with a calibrated plastic loop and spread over a dish of Sabouraud's agar plus antibiotics; the colony-forming units were counted after 48 hours of incubation at 28° C. […] 1: the β-1,2 mannotetraose (100 μg) was administered 1 hour before inoculation. 2: 1 hour after inoculation. 3: 1 h, 24 h and 48 h after inoculation. We used a model of vaginal candidiasis recognized by the international community and with which the most pertinent animal experiments to date have been performed. The results obtained in two experimental series were in perfect agreement. […] Even at the maximum dose, the α-1,2 oligomannosides administered in the same manner as control has no effect as shown in Table 3 below.

[3] = strain 10261, 150 μg by gavage prior to inoculation

## 8-carboxyloctyl 2-O-(2-O-(3-O-α-D-mannopyranosyl)-α-D-mannopyranosyl)-α-D-mannopyranosyl)-α-D-mannopyranoside [III]
Factor 34
  antigenic reactivity with Factor 34 (in words): results observed correspond to the anticipated results
[1]
  fixation of patient antibodies (in words): affix according to a reaction dependent on the dose of synthetic antigen

## OC[C@H]1O[C@H](O[C@@H]2[C@@H](O[C@@H]3[C@@H](O[C@@H]4C(O)O[C@H](CO)[C@@H](O)[C@@H]4O)O[C@H](CO)[C@@H](O)[C@@H]3O)O[C@H](CO)[C@@H](O)[C@@H]2O)[C@@H](O)[C@@H](O)[C@@H]1O (stereo partly drawn) [αM A N, D-Man α(1-2) D-Man α(1-2) D-Man α(1-2) D-Man]
[2]
  effect on gastrointestinal colonization by C. albicans (in words): did not modify the degree of gastrointestinal colonization
  reduction in intestinal colonization (in words): not seen
[2]; [3]
  degree of gastrointestinal colonization, median of CFUs: 258 CFU
C. albicans (SA-40); rat vaginal candidiasis
  inhibition of colonization/infection (in words): no effect
C. albicans (SA-40); SA-40, 50 γ 1 h, day 0
  level of colonization (colony-forming units in vaginal secretions): >100
C. albicans (SA-40); SA-40, 50 γ 1 h, day 1
  level of colonization (colony-forming units in vaginal secretions): >100
C. albicans (SA-40); SA-40, 50 γ 1 h, day 2
  level of colonization (colony-forming units in vaginal secretions): 95 ± 2
C. albicans (SA-40); SA-40, 50 γ 1 h, day 5
  level of colonization (colony-forming units in vaginal secretions): 86 ± 4
C. albicans (SA-40); SA-40, 50 γ 1 h, day 7
  level of colonization (colony-forming units in vaginal secretions): 69 ± 6
C. albicans (SA-40); SA-40, 50 γ 1 h, day 14
  level of colonization (colony-forming units in vaginal secretions): 48 ± 4
C. albicans (SA-40); SA-40, 50 γ 1 h, day 21
  level of colonization (colony-forming units in vaginal secretions): 21 ± 4
C. albicans (SA-40); SA-40, 100 γ 1 h, day 0
  level of colonization (colony-forming units in vaginal secretions): >100
C. albicans (SA-40); SA-40, 100 γ 1 h, day 1
  level of colonization (colony-forming units in vaginal secretions): >100
C. albicans (SA-40); SA-40, 100 γ 1 h, day 2
  level of colonization (colony-forming units in vaginal secretions): 93 ± 3
C. albicans (SA-40); SA-40, 100 γ 1 h, day 5
  level of colonization (colony-forming units in vaginal secretions): 83 ± 5
C. albicans (SA-40); SA-40, 100 γ 1 h, day 7
  level of colonization (colony-forming units in vaginal secretions): 71 ± 6
C. albicans (SA-40); SA-40, 100 γ 1 h, day 14
  level of colonization (colony-forming units in vaginal secretions): 495
C. albicans (SA-40); SA-40, 100 γ 1 h, day 21
  level of colonization (colony-forming units in vaginal secretions): 22.4 ± 3.4

## OC[C@H]1O[C@@H](O[C@@H]2[C@H](O[C@@H]3[C@H](O[C@@H]4C(O)O[C@H](CO)[C@@H](O)[C@@H]4O)O[C@H](CO)[C@@H](O)[C@@H]3O)O[C@H](CO)[C@@H](O)[C@@H]2O)[C@@H](O)[C@@H](O)[C@@H]1O (stereo partly drawn) [βM 4, D-Man β(1-2) D-Man β(1-2) D-Man β(1-2) D-Man]
[2]
  effect on gastrointestinal colonization by C. albicans (in words): very protective
  reduction in intestinal colonization (in words): almost total reduction
[2]; listed as synthetic β-1,2 tetramannosides
  effect on gastrointestinal colonization by C. albicans (in words): drastic, dose-dependent reduction in the number of yeasts found in the stools
[2]; listed as βMan
  effect on gastrointestinal colonization by C. albicans (in words): significantly decreased the degree of colonization
[2]; strain 10261, 50 μg by gavage prior to inoculation
  degree of gastrointestinal colonization, median of CFUs: 48.5 CFU
[2]; [3]
  degree of gastrointestinal colonization, median of CFUs: 5 CFU
C. albicans (SA-40); rat vaginal candidiasis
  inhibition of colonization/infection (in words): reduced colonization by C. albicans in a very significant manner
C. albicans (SA-40); rat vaginal candidiasis, listed as synthetic β-1,2 oligomannosides
  inhibition of colonization/infection (in words): dose-dependent relation of inhibition of colonization/infection
C. albicans (SA-40); rat vaginal candidiasis, at the end of the experiments
  carrier state of C. albicans (in words): no longer be carriers of C. albicans
C. albicans (SA-40); rat vaginal candidiasis, beginning on the first day of administration
  change of level of colonization (in words): decreased by close to half
C. albicans (SA-40); SA-40, 50 γ 1 h, day 0
  level of colonization (colony-forming units in vaginal secretions): >100
C. albicans (SA-40); SA-40, 50 γ 1 h, day 1
  level of colonization (colony-forming units in vaginal secretions): >100
C. albicans (SA-40); SA-40, 50 γ 1 h, day 2
  level of colonization (colony-forming units in vaginal secretions): 88 ± 6
C. albicans (SA-40); SA-40, 50 γ 1 h, day 5
  level of colonization (colony-forming units in vaginal secretions): 62 ± 4
C. albicans (SA-40); SA-40, 50 γ 1 h, day 7
  level of colonization (colony-forming units in vaginal secretions): 57 ± 3
C. albicans (SA-40); SA-40, 50 γ 1 h, day 14
  level of colonization (colony-forming units in vaginal secretions): 23 ± 5
C. albicans (SA-40); SA-40, 50 γ 1 h, day 21
  level of colonization (colony-forming units in vaginal secretions): <1
C. albicans (SA-40); SA-40, 100 γ 1 h, day 0
  level of colonization (colony-forming units in vaginal secretions): >100
C. albicans (SA-40); SA-40, 100 γ 1 h, day 1
  level of colonization (colony-forming units in vaginal secretions): 87 ± 6
C. albicans (SA-40); SA-40, 100 γ 1 h, day 2
  level of colonization (colony-forming units in vaginal secretions): 83 ± 8
C. albicans (SA-40); SA-40, 100 γ 1 h, day 5
  level of colonization (colony-forming units in vaginal secretions): 40 ± 6
C. albicans (SA-40); SA-40, 100 γ 1 h, day 7
  level of colonization (colony-forming units in vaginal secretions): 54 ± 8
C. albicans (SA-40); SA-40, 100 γ 1 h, day 14
  level of colonization (colony-forming units in vaginal secretions): 45 ± 14
C. albicans (SA-40); SA-40, 100 γ 1 h, day 21
  level of colonization (colony-forming units in vaginal secretions): <1
C. albicans (SA-40); SA-40, 150 γ 1 h, day 0
  level of colonization (colony-forming units in vaginal secretions): >100
C. albicans (SA-40); SA-40, 150 γ 1 h, day 1
  level of colonization (colony-forming units in vaginal secretions): 62 ± 7
C. albicans (SA-40); SA-40, 150 γ 1 h, day 2
  level of colonization (colony-forming units in vaginal secretions): 54 ± 0
C. albicans (SA-40); SA-40, 150 γ 1 h, day 5
  level of colonization (colony-forming units in vaginal secretions): 27 ± 3
C. albicans (SA-40); SA-40, 150 γ 1 h, day 7
  level of colonization (colony-forming units in vaginal secretions): 28 ± 4
C. albicans (SA-40); SA-40, 150 γ 1 h, day 14
  level of colonization (colony-forming units in vaginal secretions): 5.6 ± 3
C. albicans (SA-40); SA-40, 150 γ 1 h, day 21
  level of colonization (colony-forming units in vaginal secretions): <1
